Test results reported in PubChem BioAssay AID256 (DTP/NCI, 2004).
Toxic doses and inconclusive results are not listed.

Test system: CD2F1 mice, L1210 leukemia ip, survival T/C
Assay: NCI In Vivo Anticancer Drug Screen. Data for tumor model L1210 Leukemia (intraperitoneal) in CD2F1 (CDF1) mice
Conditions: endpoint: mean survival time, higher = longer survival
How it was run: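 Vehicle-treated tumor-bearing mice served as controls (C) for compound-treated mice (T). Reported figure is T divided by C.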

N=C1N(c2ccc(C(=O)NC(CCC(=O)O)C(=O)O)cc2)CC2CNc3nc(N)[nH]c(=O)c3N12 (centres undefined) was tested, and the T/C (dose: 100.0 mg/kg/injection, schedule: Q01DX001 (ip), vehicle: saline) was 100 % of control, the T/C (dose: 200.0 mg/kg/injection, schedule: Q01DX001 (ip), vehicle: saline) was 93 % of control and the T/C (dose: 400.0 mg/kg/injection, schedule: Q01DX001 (ip), vehicle: saline) was 104 % of control.

In the case of CC([NH-])CC[NH-].[Cl][Pt+2][Cl] (centres undefined), the T/C (dose: 6.25 mg/kg/injection, schedule: Q04DX003 (ip), vehicle: saline with Tween-80) is reported as 151 % of control.
